# Tests used:
# [1] = Thermal stability experiments under vacuum, solid phase by PXRD; format: physicochemical; conditions: 40° C., 1 mbar, different periods of time
# Procedure: Further advantages of polymorphic form R-5 arose from the significant good thermal stability that has shown over time. […] Thermal stability experiments were performed in a Binder Vacuum oven VD53 using the following methodology. Samples of from R-5 of Rufinamide were kept under vacuum, at 40° C. for different periods of times (at 1 mbar), see table 3 below. There were no significant differences in the PXRD patterns of the solids obtained after the thermal treatment.
# [2] = Grinding experiments in a ball mill, solid phase by PXRD; format: physicochemical; conditions: with solvent or without solvent
# Procedure: Grinding experiments were performed in a Retsch MM400 Ball Mill using the following methodology: samples of 30 mg of phase R-5 of Rufinamide were grinded at a frequency of 20 s^−1 for 15 min, with a drop of solvent and without solvent.
structure (smiles),measurement,setting,value
"NC(=O)c1cn(Cc2c(F)cccc2F)nn1 [R-5, 1-(2,6-difluorobenzyl)-1H-1,2,3-triazole-4-carboxamide]",Change of polymorphic form under accelerated degradation (thermal stability),[1],No changes in polymorphic form
same,Change of polymorphic form by grinding,[2],does not change

# Reference: patent US8884026B2, “Process for preparing rufinamide intermediate” (Laboratorios Lesvi, S.L., priority 2010, dated 2014)
